According to EP4741818A1, “COMPOUND TREATMENT METHOD, METHOD FOR PRODUCING COMPOUND OR REACTION PRODUCT OF SAME, SYSTEM FOR TREATING COMPOUND, AND REPLACEMENT TREATMENT COLUMN” (Flugelz Co., Ltd., priority 2023, dated 2025):
≈ marks a conversion by molar mass, not a printed value. Where “and” joins values, the source holds several entries; their conditions need not be identical. Equal entries are not always repeated.

Test: Solubility of the compound in organic solvents and eluents
Type: physicochemical
Conditions: for Solubility (mg/mL) at 25°C / Solubility: 25°C
[1] = eluent hexane and dichloromethane at 6:4 (volume ratio)

## c1ccc(-c2nc(-c3ccccc3)nc(-c3ccc(-n4c5ccc(N(c6ccccc6)c6ccccc6)cc5c5cc(N(c6ccccc6)c6ccccc6)ccc54)cc3)n2)cc1 [DACT-II, 9-[4-(4,6-diphenyl-1,3,5-triazin-2-yl)phenyl]-N,N,N',N'-tetraphenyl-9H-carbazole-3,6-diamine]
Dichloromethane
  Solubility (mg/mL) at 25°C: 100 mg/mL (≈ 124 mM)
Ethyl acetate
  Solubility (mg/mL) at 25°C: 6 mg/mL (≈ 7.42 mM)
Example 4 eluent Hexane/ethyl acetate (volume ratio: 8:1)
  Solubility: <1100 µg/mL
Example 5 eluent Hexane/toluene (volume ratio: 2:1)
  Solubility: <5900 µg/mL
Example 6 eluent Hexane/THF (volume ratio: 8:1)
  Solubility: <2100 µg/mL
Example 7 eluent Hexane/acetone (volume ratio: 8:1)
  Solubility: <300 µg/mL
Toluene
  Solubility (mg/mL) at 25°C: 30 mg/mL (≈ 37.1 mM)
[1]
  solubility in the used eluent: 3000 µg/mL
Eluent hexane and ethyl acetate at 8:1 (volume ratio)
  solubility in the used eluent: 1000 µg/mL and 1100 µg/mL
Eluent hexane and toluene at 3:2 (volume ratio)
  solubility in the used eluent: 5000 µg/mL

## c1ccc(N(c2ccccc2)c2ccc3[nH]c4ccc(N(c5ccccc5)c5ccccc5)cc4c3c2)cc1 [DACT-II precursor, N,N,N',N'-tetraphenyl-9H-carbazole-3,6-diamine]
Dichloromethane
  Solubility (mg/mL) at 25°C: 30 mg/mL (≈ 59.8 mM)
Ethyl acetate
  Solubility (mg/mL) at 25°C: 4 mg/mL (≈ 7.97 mM)
Toluene
  Solubility (mg/mL) at 25°C: 10 mg/mL (≈ 19.9 mM)
[1]
  solubility in the used eluent: 3000 µg/mL
